{
  "source": "patent EP2681209B1",
  "about": "“COMPOUNDS AND METHODS FOR THE TREATMENT OF PAIN AND OTHER DISORDERS” (Aquilus Pharmaceuticals, Inc, priority 2011, dated 2012)",
  "origin": "cited, not measured here",
  "key": {"TNF-alpha": {"test_system": "TNF-alpha", "details": "background literature; cited from earlier work"}, "MMP-9": {"molecular_target": "MMP-9 (Homo sapiens, UniProt P14780)", "sequence (P14780 94-707, species assumed)": "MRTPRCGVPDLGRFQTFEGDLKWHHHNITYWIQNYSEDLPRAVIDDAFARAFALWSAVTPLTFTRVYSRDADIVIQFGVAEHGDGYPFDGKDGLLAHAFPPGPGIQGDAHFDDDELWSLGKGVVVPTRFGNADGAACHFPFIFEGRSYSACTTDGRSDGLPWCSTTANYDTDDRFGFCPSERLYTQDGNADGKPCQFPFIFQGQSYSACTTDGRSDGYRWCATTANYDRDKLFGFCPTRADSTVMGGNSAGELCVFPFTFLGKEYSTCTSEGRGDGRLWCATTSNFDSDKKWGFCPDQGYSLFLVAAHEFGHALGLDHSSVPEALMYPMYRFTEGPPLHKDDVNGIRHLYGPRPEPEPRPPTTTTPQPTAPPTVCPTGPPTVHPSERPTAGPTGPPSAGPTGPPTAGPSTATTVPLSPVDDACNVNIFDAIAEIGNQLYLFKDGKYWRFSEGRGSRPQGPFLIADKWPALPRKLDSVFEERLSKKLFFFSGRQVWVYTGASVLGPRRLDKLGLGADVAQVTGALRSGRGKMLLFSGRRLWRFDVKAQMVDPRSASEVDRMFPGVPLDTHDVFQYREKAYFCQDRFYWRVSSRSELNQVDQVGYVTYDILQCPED", "details": "background literature; cited from earlier work"}},
  "note": "pIC50: −log10 of the molar value.",
  "data": [
    {"smiles": "CC(C)C[C@H](CC(=O)NO)C(=O)N[C@@H](Cc1ccc2ccccc2c1)C(=O)N[C@@H](C)C(N)=O", "note": "[TAPI-0]", "values": [
      {"measurement": "pIC50", "setting": "TNF-alpha", "value": "~7.00"},
      {"measurement": "pIC50", "setting": "MMP-9", "value": 9.30}
    ]}
  ]
}
